This data set can be described thus: Preservation stability of the coating liquid. In kind it is physicochemical. Particulars: coating liquid stored for 2 months shielded from light at 0° C.; appearance and GPC. On the procedure:
The preservation stability of the coating liquid was evaluated on a scale of A to E on the basis of the state of the coating liquid that was stored for 2 months under a condition where the coating liquid was shielded from light at 0° C.
A: No visual change in the appearance of the coating liquid was confirmed. A GPC analysis of the coating liquid confirmed that the change in the composition of the coating liquid was 1% or less.
B: No visual change in the appearance of the coating liquid was confirmed. A GPC analysis of the coating liquid confirmed that the change in the composition of the coating liquid was 2% or less.
C: A visual change in the appearance of the coating liquid was confirmed; a trace amount of insoluble components were confirmed, or a GPC analysis of the coating liquid confirmed that the change in the composition of the coating liquid was 3% or less.
D: A visual change in the appearance of the coating liquid was confirmed; insoluble components were confirmed. The ratio of the weight of the insoluble components to the total solid content was 5% or less.
E: A large amount of insoluble components were visually confirmed. The ratio of the weight of the insoluble components to the total solid content was 5% or more.
As for `C=CC(=O)OCCCCOC(=O)C1CCC(C(=O)OC2CCC(C(=O)Oc3ccc(OC(=O)C4CCC(OC(=O)C5CCC(C(=O)OCCCCOC(=O)C=C)CC5)CC4)c(/C=N/N(CCCCCC)c4nc5ccccc5s4)c3)CC2)CC1` (stereo not shown) [1-f-97], the Preservation stability entry is on record as “A (No visual change in the appearance of the coating liquid was confirmed. A GPC analysis of the coating liquid confirmed that the change in the composition of the coating liquid was 1% or less.)”.
Next, `C=CC(=O)OCCCCCCOc1ccc(C(=O)OCCc2ccc(OC(=O)c3ccc(OCCCCCCOC(=O)C=C)cc3)c(/C=N/Nc3nc4ccccc4s3)c2)cc1` [1-c-1]: “A (No visual change in the appearance of the coating liquid was confirmed. A GPC analysis of the coating liquid confirmed that the change in the composition of the coating liquid was 1% or less.)”.
The same measure for `C=CC(=O)OCCCCCCOc1ccc(C(=O)Oc2ccc(OC(=O)c3ccc(OCCCCCCOC(=O)C=C)cc3)c3sc(-c4ccc([N+](=O)[O-])cc4)nc23)cc1` [r-1, reference compound]: “D (A visual change in the appearance of the coating liquid was confirmed; insoluble components were confirmed. The ratio of the weight of the insoluble components to the total solid content was 5% or less.)”.
The same measure for `C=CC(=O)OCCCCOC(=O)C1CCC(C(=O)OC2CCC(C(=O)Oc3ccc(OC(=O)C4CCC(OC(=O)C5CCC(C(=O)OCCCCOC(=O)C=C)CC5)CC4)c(/C=N/N(CCCCC)c4nc5ccccc5s4)c3)CC2)CC1` (stereo not shown) [1-f-98]: “A (No visual change in the appearance of the coating liquid was confirmed. A GPC analysis of the coating liquid confirmed that the change in the composition of the coating liquid was 1% or less.)”; for `C=CC(=O)OCCCOc1ccc(C(=O)OCCc2ccc(CCOC(=O)c3ccc(OCCCOC(=O)C=C)cc3)c(/C=N/N(C(=O)C=C)c3nc(-c4ccc5ccccc5c4)cs3)c2)cc1` [1-c-41]: “A (No visual change in the appearance of the coating liquid was confirmed. A GPC analysis of the coating liquid confirmed that the change in the composition of the coating liquid was 1% or less.)”.
`C=CC(=O)OCCCOc1ccc(CCC(=O)Oc2ccc(OC(=O)CCc3ccc(OCCCOC(=O)C=C)cc3)c(/C=N/Nc3nc4ccccc4s3)c2)cc1` [1-c-49]: the Preservation stability result is given as “A (No visual change in the appearance of the coating liquid was confirmed. A GPC analysis of the coating liquid confirmed that the change in the composition of the coating liquid was 1% or less.)”.
Take `C=CC(=O)OCCCCOC(=O)C1CCC(C(=O)OC2CCC(C(=O)Oc3ccc(OC(=O)C4CCC(OC(=O)C5CCC(C(=O)OCCCCOC(=O)C=C)CC5)CC4)c(/C=N/N(CCC)c4nc5ccccc5s4)c3)CC2)CC1` (stereo not shown) [1-f-101]: the Preservation stability entry is listed as “A (No visual change in the appearance of the coating liquid was confirmed. A GPC analysis of the coating liquid confirmed that the change in the composition of the coating liquid was 1% or less.)”.
Consider `C=CC(=O)OCCCCOC(=O)C1CCC(C(=O)OC2CCC(C(=O)Oc3ccc(OC(=O)C4CCC(OC(=O)C5CCC(C(=O)OCCCCOC(=O)C=C)CC5)CC4)c(/C=N/N(CCC)c4nc5ccccc5s4)c3)CC2)CC1` (stereo not shown) [1-f-100], for which the Preservation stability result is on record as “A (No visual change in the appearance of the coating liquid was confirmed. A GPC analysis of the coating liquid confirmed that the change in the composition of the coating liquid was 1% or less.)”.
Next, `C=CC(=O)OCCCCOC(=O)C1CCC(C(=O)OC2CCC(C(=O)Oc3ccc(OC(=O)C4CCC(OC(=O)C5CCC(C(=O)OCCCCOC(=O)C=C)CC5)CC4)c(/C=N/Nc4nc5ccc6ccccc6c5s4)c3)CC2)CC1` (stereo not shown) [1-f-22]: “A (No visual change in the appearance of the coating liquid was confirmed. A GPC analysis of the coating liquid confirmed that the change in the composition of the coating liquid was 1% or less.)”.
For the compound `C=CC(=O)OCCCCCCOC(=O)/C=C/c1ccc(C(=O)Oc2ccc(OC(=O)c3ccc(/C=C/C(=O)OCCCCCCOC(=O)C=C)cc3)c(/C=N/Nc3nc4ccccc4s3)c2)cc1` [1-j-62], the Preservation stability entry is listed as “B (No visual change in the appearance of the coating liquid was confirmed. A GPC analysis of the coating liquid confirmed that the change in the composition of the coating liquid was 2% or less.)”.

The values are drawn from patent US10633353B2, “Polymerizable compound, composition, polymer, optically anisotropic body, liquid crystal display element, and organic EL display” (DIC Corporation, priority 2014, dated 2020).
